Measurements published in PubChem BioAssay (NCI).
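Assay format: 96-well plates, 48-hour exposure. Here, GI50 denotes the concentration required for 50% inhibition of growth. TGI: total growth inhibition.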

Tests used:
Test in all cases: NCI tumour cell line growth inhibition, 48 h
[1] = test system: OVCAR-5 ovarian
[2] = test system: DU-145 prostate
[3] = test system: SN12C renal
[4] = test system: ACHN renal
[5] = test system: LOX IMVI melanoma
[6] = test system: UO-31 renal
[7] = test system: NCI-H226 lung
[8] = test system: SF-295 CNS
[9] = test system: MDA-MB-435
[10] = test system: HS 578T breast

Row | SMILES | TGI [1] [µM] | TGI [2] [µM] | TGI [3] [µM] | TGI [4] [µM] | TGI [5] [µM] | TGI [6] [µM] | TGI [7] [µM] | TGI [8] [µM] | TGI [9] [µM] | TGI [10] [µM] | GI50 [1] [µM] | GI50 [2] [µM] | GI50 [3] [µM] | GI50 [4] [µM] | GI50 [5] [µM] | GI50 [6] [µM] | GI50 [7] [µM] | GI50 [8] [µM] | GI50 [9] [µM] | GI50 [10] [µM]
1 | COc1ccc2c3c([nH]c2c1)CCN(CCCC(=O)c1ccc(F)cc1)C3 | 27.1 | 33.9 | 29.7 | 30.8 | 26.7 | 27.5 | 33.2 | 29.4 | 31 | 31.7 | – | – | – | – | – | – | – | – | – | –
2 | CC(C)=CCc1[nH]c2ccccc2c1C1=C(O)C(=O)C(c2c(CC=C(C)C)[nH]c3ccccc23)=C(O)C1=O | 8.44 | 10.9 | 4.79 | 3.95 | 4.22 | 3.14 | 4.6 | 6.5 | 2.39 | 73.8 | – | – | – | – | – | – | – | – | – | –
3 | COC(=O)N[C@H](C(=O)O)C(C)O[Si](C)(C)C(C)(C)C (stereo not given in full) | > 100 | > 100 | > 100 | > 100 | > 100 | > 100 | > 100 | > 100 | > 100 | > 100 | – | – | – | – | – | – | – | – | – | –
4 | Cc1cccc(N2C(=O)C3c4[nH]c5ccccc5c4C4CCC(C(C)(C)C)CC4C3C2=O)c1 (stereo not given) | 35.2 | 33.4 | 30.5 | 17.7 | 12.9 | 28.6 | 34.1 | 21.9 | 29.6 | 29.2 | – | – | – | – | – | – | – | – | – | –
5 | CCOC(=O)C(Cc1ccc(OC(=O)OC(C)(C)C)cc1)NC(=O)OC(C)(C)C (stereo not given) | > 100 | 96 | > 100 | > 100 | > 100 | > 100 | > 100 | > 100 | > 100 | > 100 | – | – | – | – | – | – | – | – | – | –
6 | C=C1CC(Cn2ccc(=O)[nH]c2=O)(c2ccc(Cl)cc2)OC1=O (stereo not given) | 30.5 | 23.2 | 28.1 | 10.4 | 5.94 | 33 | 49.9 | 38.6 | 21 | 38.7 | – | – | – | – | – | – | – | – | – | –
7 | COc1cc(OC)cc(-c2n/c(=C\c3c(O)[nH]c4ccc(OC)cc34)cc3c2=Nc2ccccc2-3)c1 | > 100 | 10.7 | > 100 | > 100 | 12.8 | > 100 | 56.9 | 34 | 29.3 | 47.7 | 70.2 | 3.49 | > 100 | > 100 | 3.1 | 41.6 | 26.6 | 14.4 | 4.12 | 16.1
8 | CCCCCCCCCCCCCCCCOP(=O)(O)OCC(N)C(=O)O (stereo not given) | 45.1 | > 100 | 37.1 | 32.7 | 28.2 | 30.8 | 50.4 | 31.3 | 39.8 | 40.8 | – | – | – | – | – | – | – | – | – | –
9 | Nc1[nH]nc2nc3ccccc3nc12 | > 100 | > 100 | > 100 | > 100 | > 100 | > 100 | > 100 | > 100 | > 100 | > 100 | – | – | – | – | – | – | – | – | – | –
10 | O=C(/C=C/c1cccc(Oc2ccccc2)c1)NCc1ccc(C(=O)NCCc2ccccc2)cc1 | > 100 | > 100 | > 100 | > 100 | > 100 | > 100 | > 100 | > 100 | > 100 | > 100 | – | – | – | – | – | – | – | – | – | –
11 | COC(=O)c1c(C#N)c(N)nc2c1CCC2 | > 100 | > 100 | > 100 | > 100 | > 100 | > 100 | > 100 | > 100 | > 100 | > 100 | – | – | – | – | – | – | – | – | – | –
12 | c1csc(-c2ccsc2-c2cccs2)c1 | > 100 | > 100 | > 100 | > 100 | > 100 | > 100 | > 100 | > 100 | 53.7 | > 100 | – | – | – | – | – | – | – | – | – | –
13 | OCCN(/N=C\c1ccc2ccccc2c1)C1=NCCN1 | 72.2 | > 100 | > 100 | > 100 | 30.6 | > 100 | 36.1 | > 100 | 32.7 | > 100 | – | – | – | – | – | – | – | – | – | –
14 | Cc1oc2c(c1C)S(=O)(=O)C(C#N)=C(N(C)C)N2 | > 100 | > 100 | > 100 | > 100 | > 100 | > 100 | > 100 | > 100 | > 100 | > 100 | – | – | – | – | – | – | – | – | – | –
15 | Cc1csc2c1-n1cccc1C2=O | > 100 | > 100 | > 100 | > 100 | > 100 | > 100 | > 100 | > 100 | > 100 | > 100 | – | – | – | – | – | – | – | – | – | –
16 | Cn1ncc2c(Cl)ncnc21 | > 100 | > 100 | > 100 | > 100 | > 100 | > 100 | > 100 | > 100 | > 100 | > 100 | – | – | – | – | – | – | – | – | – | –
